Measurements: ChEMBL document CHEMBL4831506, “Discovery of novel trimethoxyphenylbenzo[d]oxazoles as dual tubulin/PDE4 inhibitors capable of inducing apoptosis at G2/M phase arrest in glioma and lung cancer cells” (Eur J Med Chem, 2021)

Key:
U-251 [1] = assay: Antiproliferative activity against human U-251 cells after 48 hrs by MTT assay; assay type: functional, cell-based; details: U-251, 48 h
A549 [2] = assay: Antiproliferative activity against human A549 cells after 48 hrs by MTT assay; assay type: functional, cell-based; details: A549, 48 h
NCI-H460 = assay: Antiproliferative activity against human NCI-H460 cells after 48 hrs by MTT assay; assay type: functional, cell-based; details: NCI-H460, 48 h
MCF7 = assay: Antiproliferative activity against human MCF7 cells after 48 hrs by MTT assay; assay type: functional, cell-based; details: MCF7, 48 h
Sus scrofa [3] = species on record: Sus scrofa; assay: Inhibition of pig brain tubulin polymerization at 10 uM by spectrometric method relative to control; assay type: tissue-based
[4] = biological target: 3',5'-cyclic-AMP phosphodiesterase 4C (Homo sapiens, UniProt Q08493); assay: Inhibition of PDE4 CAT (unknown origin)
Sus scrofa [5] = species on record: Sus scrofa; assay: (§1) Inhibition of pig brain tubulin polymerization at 1 uM by spectrometric method relative to control; assay type: tissue-based
A549 [6] = assay: Cell cycle arrest in human A549 cells assessed as G0/G1 phase at 500 nM incubated for 24 hrs by propidium iodide staining based flow cytometry analysis (reference value: 79.14%); assay type: functional
A549 [7] = assay: Cell cycle arrest in human A549 cells assessed as G2/M phase at 500 nM measured after 24 hrs by propidium iodide staining based flow cytometry analysis (reference value: 6.08%); assay type: functional
A549 [8] = assay: Cell cycle arrest in human A549 cells assessed as S phase at 500 nM measured after 24 hrs by propidium iodide staining based flow cytometry analysis (reference value: 14.78%); assay type: functional
U-251 [9] = assay: Cell cycle arrest in human U-251 cells assessed as G0/G1 phase at 200 nM measured after 24 hrs by propidium iodide staining based flow cytometry analysis (reference value: 67.34%); assay type: functional
U-251 [10] = assay: Cell cycle arrest in human U-251 cells assessed as G2/M phase at 200 nM measured after 24 hrs by propidium iodide staining based flow cytometry analysis (reference value: 14.43%); assay type: functional
U-251 [11] = assay: Cell cycle arrest in human U-251 cells assessed as S phase at 200 nM measured after 24 hrs by propidium iodide staining based flow cytometry analysis (reference value: 18.23%); assay type: functional
A549 [12] = assay: Induction of apoptosis in human A549 cells assessed as increase in viable cells at 500 nM measured after 24 hrs by PI/FITC analysis (reference value: 98.4%); assay type: functional
A549 [13] = assay: Induction of apoptosis in human A549 cells assessed as increase in early apoptotic cells at 500 nM measured after 24 hrs by PI/FITC analysis (reference value: 0.955%); assay type: functional
A549 [14] = assay: Induction of apoptosis in human A549 cells assessed as increase in necrotic cells at 500 nM measured after 24 hrs by PI/FITC analysis (reference value: 0.365%); assay type: functional
U-251 [15] = assay: Induction of apoptosis in human U-251 cells assessed as increase in viable cells at 200 nM measured after 24 hrs by PI/FITC analysis (reference value: 98.3%); assay type: functional
U-251 [16] = assay: Induction of apoptosis in human U-251 cells assessed as increase in early apoptotic cells at 200 nM measured after 24 hrs by PI/FITC analysis (reference value: 1.12%); assay type: functional
U-251 [17] = assay: Induction of apoptosis in human U-251 cells assessed as increase in late apoptotic cells at 200 nM measured after 24 hrs by PI/FITC analysis (reference value: 0.311%); assay type: functional
U-251 [18] = assay: Induction of apoptosis in human U-251 cells assessed as increase in necrotic cells at 200 nM measured after 24 hrs by PI/FITC analysis (reference value: 0.301%); assay type: functional
[19] = as §1; assay type: tissue-based, Sus scrofa
A549 [20] = assay: Induction of apoptosis in human A549 cells assessed as increase in late apoptotic cells at 500 nM measured after 24 hrs by PI/FITC analysis (reference value: 0.955%); assay type: functional

3',5'-cyclic-AMP phosphodiesterase 4C, sequence (Q08493 whole entry): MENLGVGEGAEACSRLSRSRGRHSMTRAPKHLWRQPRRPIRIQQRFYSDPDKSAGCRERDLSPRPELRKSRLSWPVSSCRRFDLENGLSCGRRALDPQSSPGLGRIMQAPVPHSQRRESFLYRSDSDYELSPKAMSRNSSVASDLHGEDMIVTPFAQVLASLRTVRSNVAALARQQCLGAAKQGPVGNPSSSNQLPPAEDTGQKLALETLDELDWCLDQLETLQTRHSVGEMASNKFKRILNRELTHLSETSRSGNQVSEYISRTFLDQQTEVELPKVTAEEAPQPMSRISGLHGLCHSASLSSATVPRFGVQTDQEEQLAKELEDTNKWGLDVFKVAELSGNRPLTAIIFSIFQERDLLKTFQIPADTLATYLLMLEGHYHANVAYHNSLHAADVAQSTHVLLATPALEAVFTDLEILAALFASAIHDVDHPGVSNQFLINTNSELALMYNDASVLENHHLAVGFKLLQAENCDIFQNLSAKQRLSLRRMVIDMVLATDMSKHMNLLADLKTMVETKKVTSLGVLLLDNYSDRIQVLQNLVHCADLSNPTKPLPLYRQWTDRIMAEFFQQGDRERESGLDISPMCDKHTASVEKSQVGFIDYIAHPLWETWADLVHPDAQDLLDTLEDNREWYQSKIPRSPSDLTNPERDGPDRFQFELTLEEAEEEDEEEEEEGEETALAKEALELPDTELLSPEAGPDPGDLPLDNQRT

| IC50 (U-251 [1]) [µM] | IC50 (A549 [2]) [µM] | IC50 (NCI-H460) [µM] | IC50 (MCF7) [µM] | SMILES | other results |
| --- | --- | --- | --- | --- | --- |
| 1.7 | 1.8 | 2.8 | > 25 | COc1ccc(-c2nc3cccc(-c4cc(OC)c(OC)c(OC)c4)c3o2)cc1F | – |
| 19.4 | > 25 | 19.9 | > 25 | COc1ccc(-c2nc3c(-c4cc(OC)c(OC)c(OC)c4)cccc3o2)cc1F | – |
| 5.5 | 2 | 1.9 | > 25 | COc1cc(-c2cccc3nc(-c4cccc(O)c4)oc23)cc(OC)c1OC | IC50 [19]: 5 µM; inhibition (Sus scrofa [3]): 43% |
| > 25 | > 25 | > 25 | > 25 | COc1cc(-c2cccc3nc(-c4ccc(Br)cc4)oc23)cc(OC)c1OC | – |
| 1.6 | 5.6 | > 25 | > 25 | COc1cc(-c2cccc3nc(-c4ccc(Cl)cc4)oc23)cc(OC)c1OC | – |
| > 25 | > 25 | 8.6 | > 25 | COc1cc(-c2cccc3oc(-c4ccc(Cl)cc4)nc23)cc(OC)c1OC | – |
| 6.8 | 2.1 | 3.8 | > 25 | COc1cc(-c2cccc3nc(-c4cccc(Br)c4)oc23)cc(OC)c1OC | – |
| 2.9 | 2.6 | 3.3 | > 25 | COc1cc(-c2cccc3nc(-c4cccc(F)c4)oc23)cc(OC)c1OC | – |
| 10.3 | 15.7 | 2 | > 25 | COc1cc(-c2nc3cccc(-c4cc(OC)c(OC)c(OC)c4)c3o2)ccc1O | – |
| 16.2 | 20.2 | 3.1 | > 25 | COc1cc(-c2cccc3oc(-c4ccc(C)cc4)nc23)cc(OC)c1OC | – |
| > 25 | 16.7 | > 25 | > 25 | COc1cc(-c2cccc3nc(-c4cccc(C)c4)oc23)cc(OC)c1OC | – |
| > 25 | 20.1 | 8.9 | > 25 | COc1ccc(-c2nc3c(-c4cc(OC)c(OC)c(OC)c4)cccc3o2)cc1OC | – |

More lines, now with the values behind:

| SMILES | IC50 (U-251 [1]) [µM] | IC50 (A549 [2]) [µM] | IC50 (NCI-H460) [µM] | IC50 (MCF7) [µM] | other results |
| --- | --- | --- | --- | --- | --- |
| COc1cc(-c2cccc3nc(-c4ccco4)oc23)cc(OC)c1OC | 10.6 | 10.3 | 2.6 | > 25 | inhibition (Sus scrofa [3]): 0%; IC50 [4]: 3.3 µM |
| COc1ccc(-c2nc3cccc(-c4cc(OC)c(OC)c(OC)c4)c3o2)cc1OC | 1.3 | 2.8 | > 25 | > 25 | – |
| COc1cc(-c2cccc3nc(-c4cccs4)oc23)cc(OC)c1OC | 3 | 12.5 | 1.6 | > 25 | inhibition (Sus scrofa [3]): 0%; IC50 [4]: 0.57 µM |
| COc1ccc(-c2cccc3nc(-c4ccc5cc[nH]c5c4)oc23)c(OC)c1OC | 9.5 | 9.6 | > 25 | > 25 | – |
| COc1cc(-c2cccc3oc(-c4cccc(F)c4)nc23)cc(OC)c1OC | > 25 | > 25 | > 25 | > 25 | – |
| COc1ccc(/C=C\c2cc(OC)c(OC)c(OC)c2)cc1O [COMBRETASTATIN A4] | 0.13 | 0.6 | 0.076 | 0.42 | inhibition (Sus scrofa [5]): 52%; inhibition (Sus scrofa [3]): 94%; Activity (A549 [6]): 37.63%; Activity (A549 [7]): 40.07%; Activity (A549 [8]): 22.31%; Activity (U-251 [9]): 34.64%; Activity (U-251 [10]): 42.9%; Activity (U-251 [11]): 22.47%; Activity (A549 [12]): 77.9%; Activity (A549 [13]): 10.1%; Activity (A549 [14]): 0.412%; Activity (U-251 [15]): 92.1%; Activity (U-251 [16]): 4.02%; Activity (U-251 [17]): 11.9%; Activity (U-251 [18]): 1.96% |
| COc1cc(-c2cccc3nc(-c4ccc(N)cc4)oc23)cc(OC)c1OC | 1.04 | 0.72 | 0.31 | > 25 | inhibition (Sus scrofa [5]): 11%; inhibition (Sus scrofa [3]): 36% |
| COc1cc(-c2cccc3oc(-c4ccccc4)nc23)cc(OC)c1OC | > 25 | > 25 | 9 | > 25 | – |
| COc1cccc(-c2nc3cccc(-c4cc(OC)c(OC)c(OC)c4)c3o2)c1 | > 25 | 3.5 | > 25 | > 25 | – |
| COc1ccc(C2CNC(=O)C2)cc1OC1CCCC1 (stereo not drawn) [ROLIPRAM] | > 100 | > 100 | > 100 | > 100 | Activity (A549 [6]): 79.7%; Activity (A549 [7]): 4.56%; Activity (A549 [8]): 15.73%; Activity (U-251 [9]): 68.42%; Activity (U-251 [10]): 14.73%; Activity (U-251 [11]): 16.85%; Activity (A549 [12]): 98.2%; Activity (A549 [13]): 1.34%; Activity (A549 [20]): 0.291%; Activity (A549 [14]): 0.216%; Activity (U-251 [15]): 96.4%; Activity (U-251 [16]): 1.96%; Activity (U-251 [17]): 0.865%; Activity (U-251 [18]): 0.745% |
| COc1cc(-c2cccc3nc(-c4ccc(C)cc4)oc23)cc(OC)c1OC | 3.2 | 0.68 | 1.9 | > 25 | inhibition (Sus scrofa [3]): 18% |
| COc1cc(-c2cccc3nc(-c4cccc(Cl)c4)oc23)cc(OC)c1OC | 18.5 | > 25 | > 25 | > 25 | – |
| COc1cc(-c2cccc3oc(-c4ccc(F)cc4)nc23)cc(OC)c1OC | > 25 | > 25 | 22.1 | > 25 | – |
| COc1cc2c(c(OC)c1OC)-c1ccc(OC)c(=O)cc1[C@@H](NC(C)=O)CC2 [COLCHICINE] | 0.017 | 0.024 | – | 0.04 | – |
| COc1cc(OC)cc(-c2nc3c(-c4cc(OC)c(OC)c(OC)c4)cccc3o2)c1 | > 25 | 16.3 | 5.7 | > 25 | – |
| COc1ccc(-c2nc3cccc(-c4cc(OC)c(OC)c(OC)c4)c3o2)cc1 | > 25 | 2.2 | 3.5 | > 25 | – |
| COc1cc(-c2cccc3nc(-c4ccc(F)cc4)oc23)cc(OC)c1OC | > 25 | 8.7 | 8.7 | > 25 | – |
| COc1cc(-c2cccc3nc(-c4cccc(N)c4)oc23)cc(OC)c1OC | 2.2 | 4.7 | 2.6 | > 25 | inhibition (Sus scrofa [5]): 14%; inhibition (Sus scrofa [3]): 19% |
| COc1cc(-c2cccc3nc(-c4ccccc4)oc23)cc(OC)c1OC | 3.5 | 20.3 | 6.8 | > 25 | – |
